Patent publication US8664257B2, “Oxygen-substituted 3-heteroaroylamino-propionic acid derivatives and their use as pharmaceuticals” (Sanofi, priority 2010, dated 2014)
Where two headings read alike, the source gives them in different places.

Target: T1, Recombinant human cathepsin A (Homo sapiens, UniProt P10619)
T1 construct: Recombinant human cathepsin A (residues 29-480, with a C-terminal 10-His tag); 10-His (C); purchased R&D Systems 1049-SE
T1 sequence (P10619 29-312 limits assumed): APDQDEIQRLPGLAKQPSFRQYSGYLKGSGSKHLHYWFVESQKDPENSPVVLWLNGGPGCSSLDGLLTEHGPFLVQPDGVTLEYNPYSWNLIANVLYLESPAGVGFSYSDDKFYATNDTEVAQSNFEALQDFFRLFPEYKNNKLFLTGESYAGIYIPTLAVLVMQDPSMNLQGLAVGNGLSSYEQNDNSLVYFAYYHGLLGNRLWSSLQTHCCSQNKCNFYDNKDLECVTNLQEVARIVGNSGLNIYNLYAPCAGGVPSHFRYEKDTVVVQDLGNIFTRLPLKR
T1 sequence (P10619 327-480 limits assumed): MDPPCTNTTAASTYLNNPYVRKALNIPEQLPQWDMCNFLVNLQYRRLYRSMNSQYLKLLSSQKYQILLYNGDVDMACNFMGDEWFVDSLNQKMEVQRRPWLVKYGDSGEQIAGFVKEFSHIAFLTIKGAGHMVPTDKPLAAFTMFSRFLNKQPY
Experiment: Cathepsin A inhibitory activity
Assay type: biochemical
Summary of the method: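 Read-out was microfluidic separation of cleaved vs. uncleaved Bodipy FL-bradykinin (2 μM), giving turnover, % inhibition and IC50. Compound and 833 ng/ml enzyme met for 15 min RT in pH 5.5 MES/DTT before substrate (15 min RT). The 29-480 His-tagged human enzyme was first activated by cathepsin L, then E-64 (10 μM).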

[1] = read-out: Activity (2): Cathepsin A inhibitory activity (IC50 class)
[2] = recombinant human cathepsin A 833 ng/ml, Bodipy FL-labeled bradykinin 2 μM, pH 5.5, read-out: CATH-A IC50
[3] = pharmacological test "Cathepsin A inhibitory activity", IC50 given as class A/B/C, read-out: Activity (2): Cathepsin A inhibitory activity, IC50 class
[4] = recombinant human cathepsin A, read-out: Activity (2): Cathepsin A inhibitory activity, IC50 class
[5] = read-out: Activity (2): Cathepsin A inhibitory activity, IC50 class

| SMILES | IC50 [1] | IC50 [5] | other results |
| --- | --- | --- | --- |
| CC(C)[C@@](C)(O)COc1cc(C(=O)N[C@@H](CC(=O)O)c2ccc(F)cc2)nn1-c1ccccc1F [Example 768, (S)-3-(4-Fluoro-phenyl)-3-{[1-(2-fluoro-phenyl)-5-((R)-2-hydroxy-2,3-dimethyl-butoxy)-1H-pyrazole-3-carbonyl]-amino}-propionic acid] | < 100 nM | – | IC50 [2]: 1.15 nM |
| O=C(O)C[C@H](NC(=O)c1cc(OCC2CC2)n(-c2ccccc2F)n1)c1ccccc1Cl [Example 696] | < 100 nM | – | – |
| CC(C)[C@@](C)(O)COc1cc(C(=O)NC(CC(=O)O)C2CCCCC2)nn1-c1ccccc1F (stereo partly drawn) [Example 786, 3-Cyclohexyl-3-{[1-(2-fluoro-phenyl)-5-((R)-2-hydroxy-2,3-dimethyl-butoxy)-1H-pyrazole-3-carbonyl]-amino}-propionic acid] | < 100 nM | – | – |
| N#Cc1ccc([C@H](CC(=O)O)NC(=O)c2cc(O)n(-c3ccc(F)cc3F)n2)cc1 [Example 176] | – | – | IC50 [3]: 100 to 1000 nM |
| CCOc1cc(C(=O)NC(CC(=O)O)c2ccc(F)cc2)nn1-c1ccccc1Cl (centres unmarked) [Example 739] | 100 to 1000 nM | – | – |
| Cc1ccc(C(CC(=O)O)NC(=O)c2cc(O)n(-c3ccccc3F)n2)c(C)c1 (centres unmarked) [Example 247] | – | – | IC50 [3]: 100 to 1000 nM |
| COc1ccc(C(F)(F)F)cc1C(CC(=O)O)NC(=O)c1cc(O)n(-c2ccccc2)n1 (centres unmarked) [Example 548, 3-[(5-Hydroxy-1-phenyl-1H-pyrazole-3-carbonyl)-amino]-3-(2-methoxy-5-trifluoromethyl-phenyl)-propionic acid] | 1000 to 30000 nM | – | IC50 [2]: 7760 nM |
| O=C(O)C[C@H](NC(=O)c1cc(O)n(-c2cccc(Cl)c2)n1)c1cccc(Cl)c1Cl [Example 412] | – | – | IC50 [4]: 1000 to 30000 nM |
| O=C(O)C[C@H](NC(=O)c1cc(O)n(-c2ccc(Cl)cc2)n1)c1cccc(C(F)(F)F)c1 [Example 285] | – | 1000 to 30000 nM | – |
| O=C(O)C[C@H](NC(=O)c1cc(O)n(-c2ccccc2F)n1)c1ccc(C(F)(F)F)cc1 [Example 121] | – | 100 to 1000 nM | – |
| Cc1ccccc1[C@H](CC(=O)O)NC(=O)c1cc(OCC2CCC2)n(-c2ccccc2F)n1 [Example 649] | < 100 nM | – | – |
| Cc1ccccc1[C@H](CC(=O)O)NC(=O)c1cc(O)n(-c2cccc(Cl)c2)n1 [Example 75] | – | 100 to 1000 nM | – |
| Cc1ccccc1[C@H](CC(=O)O)NC(=O)c1cc(OCC2CCCO2)n(-c2ccccc2F)n1 (some centres unmarked) [Example 642] | < 100 nM | – | – |
| O=C(O)CC(NC(=O)c1cc(O)n(-c2ccccc2Cl)n1)c1ccccc1F (centres unmarked) [Example 208] | – | – | IC50 [3]: 100 to 1000 nM |
| CN(C)c1ccc(C(CC(=O)O)NC(=O)c2cc(O)n(-c3ccc(F)cc3F)n2)c(Cl)c1 (centres unmarked) [Example 448, 3-(2-Chloro-4-dimethylamino-phenyl)-3-{[1-(2,4-difluoro-phenyl)-5-hydroxy-1H-pyrazole-3-carbonyl]-amino}-propionic acid] | – | – | IC50 [2]: 884 nM; IC50 [4]: 100 to 1000 nM |
| CCOc1cc(C(=O)N[C@@H](CC(=O)O)c2ccc(C(F)(F)F)cc2)nn1-c1ccccc1Cl [Example 735] | 100 to 1000 nM | – | – |
| Cc1ccccc1[C@H](CC(=O)O)NC(=O)c1cc(O)n(-c2ccc(S(N)(=O)=O)cc2)n1 [Example 602] | 1000 to 30000 nM | – | – |
| O=C(O)CC(NC(=O)c1cc(O)n(-c2ccc(F)cc2F)n1)c1cc(F)ccc1C(F)(F)F (centres unmarked) [Example 452, 3-{[1-(2,4-Difluoro-phenyl)-5-hydroxy-1H-pyrazole-3-carbonyl]-amino}-3-(5-fluoro-2-trifluoromethyl-phenyl)-propionic acid] | – | – | IC50 [2]: 139 nM; IC50 [4]: 100 to 1000 nM |
| CC[C@@H](C)NC(=O)C[C@H](NC(=O)c1cc(OC)n(-c2ccccc2F)n1)c1ccccc1C [Example 918, 1-(2-Fluoro-phenyl)-5-methoxy-1H-pyrazole-3-carboxylic acid [(S)-2-((R)-sec-butylcarbamoyl)-1-o-tolyl-ethyl]-amide] | – | – | IC50 [4]: 1000 to 30000 nM |
| CCc1ccc(C(CC(=O)O)NC(=O)c2cc(O)n(-c3ccccc3)n2)cc1 (centres unmarked) [Example 22] | – | 100 to 1000 nM | – |
| Cc1ccccc1[C@H](CC(=O)O)NC(=O)c1cc(OC2CCC2)n(-c2ccccc2F)n1 [Example 648] | < 100 nM | – | – |
| Cc1ccc(F)cc1C(CC(=O)O)NC(=O)c1cc(O)n(-c2cccc(Cl)c2)n1 (centres unmarked) [Example 510, 3-{[1-(3-Chloro-phenyl)-5-hydroxy-1H-pyrazole-3-carbonyl]-amino}-3-(5-fluoro-2-methyl-phenyl)-propionic acid] | – | – | IC50 [2]: 175 nM; IC50 [4]: 100 to 1000 nM |
| O=C(O)CC(NC(=O)c1cc(O)n(-c2ccc(F)c(Cl)c2)n1)c1ccc(F)cc1 (centres unmarked) [Example 72] | – | 1000 to 30000 nM | – |

| SMILES | IC50 [1] | IC50 [5] | other results |
| --- | --- | --- | --- |
| COc1ccc(C(CC(=O)O)NC(=O)c2cc(O)n(-c3ccccc3)n2)cc1OC (centres unmarked) [Example 11] | – | 1000 to 30000 nM | – |
| O=C(O)CC(NC(=O)c1cc(O)n(-c2cccc(F)c2)n1)c1cccc2c1OCO2 (centres unmarked) [Example 300] | – | 100 to 1000 nM | – |
| O=C(O)C[C@H](NC(=O)c1cc(OCC2CC2)n(-c2ccccc2F)n1)c1ccc(C(F)(F)F)cc1 [Example 694] | < 100 nM | – | – |
| O=C(O)CC(NC(=O)c1cc(O)n(-c2ccccc2)n1)c1ccc(-c2ccccc2Cl)cc1 (centres unmarked) [Example 539] | 100 to 1000 nM | – | – |
| O=C(O)CC(NC(=O)c1cc(O)n(-c2ccc(F)cc2F)n1)c1cccc2c1OC(F)(F)O2 (centres unmarked) [Example 450, 3-(2,2-Difluoro-benzo[1,3]dioxol-4-yl)-3-{[1-(2,4-difluoro-phenyl)-5-hydroxy-1H-pyrazole-3-carbonyl]-amino}-propionic acid] | – | – | IC50 [2]: 409 nM; IC50 [4]: 100 to 1000 nM |
| O=C(O)CC(NC(=O)c1cc(O)n(-c2cccc(F)c2)n1)c1cc(F)ccc1Cl (centres unmarked) [Example 483] | – | – | IC50 [4]: 100 to 1000 nM |
| N#Cc1ccc([C@H](CC(=O)O)NC(=O)c2cc(O)n(-c3ccccc3F)n2)cc1 [Example 123] | – | 100 to 1000 nM | – |
| COc1cccc(F)c1C(CC(=O)O)NC(=O)c1cc(O)n(-c2ccc(Cl)cc2)n1 (centres unmarked) [Example 469, 3-{[1-(4-Chloro-phenyl)-5-hydroxy-1H-pyrazole-3-carbonyl]-amino}-3-(2-fluoro-6-methoxy-phenyl)-propionic acid] | – | – | IC50 [2]: 860 nM; IC50 [4]: 100 to 1000 nM |
| N#Cc1ccc([C@H](CC(=O)O)NC(=O)c2cc(O)n(-c3cccc(F)c3)n2)cc1 [Example 305] | – | 100 to 1000 nM | – |
| COc1cc(C(=O)N[C@@H](CC(=O)NC[C@@H]2CCCO2)c2ccccc2C)nn1-c1ccccc1F [Example 938, 1-(2-Fluoro-phenyl)-5-methoxy-1H-pyrazole-3-carboxylic acid ((S)-2-{[(S)-1-(tetrahydro-furan-2-yl)methyl]-carbamoyl}-1-o-tolyl-ethyl)-amide] | – | – | IC50 [4]: < 100 nM |
| Cc1ccc(C)c(-n2nc(C(=O)NC(CC(=O)O)C3CCCCC3)cc2O)c1 (centres unmarked) [Example 37] | – | 1000 to 30000 nM | – |
| COc1ccc(C(CC(=O)O)NC(=O)c2cc(O)n(-c3ccccc3)n2)cc1F (centres unmarked) [Example 68] | – | 1000 to 30000 nM | – |
| CC(C)(C)[C@@H](O)COc1cc(C(=O)N[C@@H](CC(=O)O)c2ccc(Cl)cc2Cl)nn1-c1ccccc1F [Example 753, (S)-3-(2,4-Dichloro-phenyl)-3-{[1-(2-fluoro-phenyl)-5-((R)-2-hydroxy-3,3-dimethyl-butoxy)-1H-pyrazole-3-carbonyl]-amino}-propionic acid] | < 100 nM | – | IC50 [2]: 345 nM |
| O=C(O)C[C@H](NC(=O)c1cc(O)n(-c2ccc(Cl)cc2)n1)c1cccnc1 [Example 298] | – | 1000 to 30000 nM | – |
| Cc1cccc(C(CC(=O)O)NC(=O)c2cc(O)n(-c3ccccc3F)n2)c1C (centres unmarked) [Example 405] | – | – | IC50 [4]: < 100 nM |
| Cc1ccccc1[C@H](CC(=O)O)NC(=O)c1cc(O)n(-c2nccc(C(F)(F)F)n2)n1 [Example 138] | – | – | IC50 [3]: 1000 to 30000 nM |
| COc1ccc(C(CC(=O)O)NC(=O)c2cc(O)n(-c3ccccc3Cl)n2)c(C(F)(F)F)c1 (centres unmarked) [Example 567, 3-{[1-(2-Chloro-phenyl)-5-hydroxy-1H-pyrazole-3-carbonyl]-amino}-3-(4-methoxy-2-trifluoromethyl-phenyl)-propionic acid] | 1000 to 30000 nM | – | IC50 [2]: 1060 nM |
| COc1ccc([C@H](CC(=O)O)NC(=O)c2cc(O)n(-c3ccc(F)cc3F)n2)cn1 [Example 390] | – | 100 to 1000 nM | – |
| O=C(O)CC(NC(=O)c1cc(O)n(-c2ccccc2Cl)n1)c1cc(F)ccc1F (centres unmarked) [Example 459, 3-{[1-(2-Chloro-phenyl)-5-hydroxy-1H-pyrazole-3-carbonyl]-amino}-3-(2,5-difluoro-phenyl)-propionic acid] | – | – | IC50 [2]: 128 nM; IC50 [4]: 100 to 1000 nM |
| O=C(O)CC(NC(=O)c1cc(O)n(-c2ccccc2)n1)c1ccc(Cl)c(Cl)c1 (centres unmarked) [Example 62] | – | 100 to 1000 nM | – |
| O=C(O)CC(NC(=O)c1cc(O)n(-c2ccccc2F)n1)c1ccccc1 (centres unmarked) [Example 535] | – | – | IC50 [4]: 100 to 1000 nM |
| COc1ccccc1[C@H](CC(=O)O)NC(=O)c1cc(OCC2CC2)n(-c2ccccc2F)n1 [Example 687] | 100 to 1000 nM | – | – |
| Cc1cc(F)ccc1C(CC(=O)O)NC(=O)c1cc(O)n(-c2ccc(F)cc2)n1 (centres unmarked) [Example 364] | – | 100 to 1000 nM | – |
